Three molecules from patent publication US11957143B2, “Highly-soluble rebaudioside D” (SUNTORY HOLDINGS LIMITED, priority 2018, dated 2024) can be followed below.

Common to all, as to assay type: physicochemical
Data set [1] can be described thus: Moisture content of crystalline forms (FIG. 10). The note with it: sample heating 130° C. in N2, trace moisture analyzer. The procedure:
The “moisture content” herein means the proportion of water contained in the crystal and is the proportion (wt %) of the weight of water based on the weight of the entire crystal. The moisture content of the crystal can be determined, for example, by heating the crystal at a high temperature (for example, 130° C.) under an inert atmosphere, and calculating from the change in weight between before and after the heating. The crystal of Reb. D of the present invention preferably has a moisture content of 0.1 wt % to 2.0 wt %, more preferably 0.2 wt % to 1.2 wt %, further preferably 0.40 wt % to 0.8 wt %.
The crystals of Reb. D in the crystalline form α and the crystalline form β and the control (in a stable form) were provided, and their moisture contents were compared. […] The devices and the conditions used for measuring the moisture contents are shown below.
Devices: • Trace moisture analyzer: CA-200, manufactured by Mitsubishi Chemical Analytech Co., Ltd. • Water vaporizer: VA-200 • Reagents: AQUAMICRON AX as anolyte and AQUAMICRON CXU as catholyte • Sample heating: 130° C. in an inert gas atmosphere (gas: N2, flow rate: 300 ml/min)

Data set [2] is described as follows: Solubility of crystals of Reb. D, amount dissolved (FIG. 6). The note with it: 300 mg in pure water (150 ml) at 7.5° C., stirring at 200 rpm, 0.45-um filter. As for the experimental part: The crystals of Reb. D in the crystalline form α and the crystalline form β and a control (commercially available Reb. D in a stable form) were provided, to compare their solubilities. The crystal in the crystalline form α used was obtained by maintaining Reb. D at 50° C. for 1 hour, followed by appropriate N2 purge, and the crystal in the crystalline form β used was obtained by maintaining Reb. D at 100° C. for 1.5 hours, followed by appropriate N2 purge and then overnight cooling at normal temperature. The conditions for dissolution and sample preparation are shown below.
300 mg of Reb. D was added to pure water (150 ml) at 7.5° C., followed by stirring at 200 rpm, for dissolution.
(§1) Sample Preparation Conditions:
A 0.45-um filter was immersed in the solution for 30 seconds, and then a filtrate was obtained through the filter. 1 ml of the filtrate obtained was collected and diluted 10-fold with pure water.

Data set [3] can be described thus: Improvement in solubility by supplementary addition of crystal to saturated Reb. D solution (FIG. 9). The procedure:
Using the Reb. D in the crystalline form α, tests were conducted to confirm that the solubility of commercially available Reb. D was improved. […] First, commercially available Reb. D (in a stable form) was added to water to a saturated state. 24 hours later, the crystal of Reb. D in the crystalline form α was added to the saturated solution. Sampling was performed 24 hours later, 25 hours later, and 48 hours later, to check the amount of the Reb. D dissolved. […] D in the crystalline form α was added.

The nature of data set [4]: Turbidity (NTU) and amount dissolved 40 minutes after dissolution (FIG. 7). The note with it: 90 mg in 150 ml pure water at 7.5° C., 350 rpm, 40 minutes later, versus control. As for the experimental part:
The “turbidity (NTU)” herein means the degree of turbidity when the Reb. D is dissolved in water, and the lower the turbidity means that the Reb. D is dissolved better. The turbidity can be measured by a known method, for example, using an existing absorptiometer.
Then, the solubilities were evaluated under the conditions varied. The crystal in the crystalline form α used was obtained by maintaining at 55° C. for 2 hours, followed by appropriate N2 purge and then natural cooling in vacuo. The dissolution conditions, the conditions of turbidity (NTU) measurement, and the sample preparation conditions are shown below.
90 mg of Reb. D was added to 150 ml of pure water (equivalent to 300 mg/500 ml) at 7.5° C., followed by stirring at 350 rpm for dissolution. The degree of dissolution was checked 40 minutes later.
Conditions of Turbidity (NTU) Measurement:
30 ml was collected 40 minutes later, and the turbidity (NTU) was measured. The turbidity was measured with an absorptiometer (2100AN, manufactured by Hach Company) by turbidimetry using formazin as a standard solution.
as §1
A 0.45-um filter was immersed in the solution for 6 seconds, and then a filtrate was obtained through the filter. 1 ml of the filtrate obtained was collected and diluted 10-fold with pure water.

Consider `C=C1C[C@@]23CC[C@H]4[C@@](C)(CCC[C@@]4(C)C(=O)O[C@@H]4O[C@H](CO)[C@@H](O)[C@H](O)[C@H]4O[C@@H]4O[C@H](CO)[C@@H](O)[C@H](O)[C@H]4O)[C@@H]2CC[C@]1(O[C@@H]1O[C@H](CO)[C@@H](O)[C@H](O[C@@H]2O[C@H](CO)[C@@H](O)[C@H](O)[C@H]2O)[C@H]1O[C@@H]1O[C@H](CO)[C@@H](O)[C@H](O)[C@H]1O)C3` [control, rebaudioside D], for which the moisture content entry in data set [1] is recorded as “over 5 wt %”.
For `C=C1C[C@@]23CC[C@H]4[C@@](C)(CCC[C@@]4(C)C(=O)O[C@@H]4O[C@H](CO)[C@@H](O)[C@H](O)[C@H]4O[C@@H]4O[C@H](CO)[C@@H](O)[C@H](O)[C@H]4O)[C@@H]2CC[C@]1(O[C@@H]1O[C@H](CO)[C@@H](O)[C@H](O[C@@H]2O[C@H](CO)[C@@H](O)[C@H](O)[C@H]2O)[C@H]1O[C@@H]1O[C@H](CO)[C@@H](O)[C@H](O)[C@H]1O)C3` [crystalline form β, rebaudioside D], the “amount dissolved as compared with the control (Cont)” value in data set [2] was “increased”. The moisture content in data set [1] came to 0.37 wt %.
With `C=C1C[C@@]23CC[C@H]4[C@@](C)(CCC[C@@]4(C)C(=O)O[C@@H]4O[C@H](CO)[C@@H](O)[C@H](O)[C@H]4O[C@@H]4O[C@H](CO)[C@@H](O)[C@H](O)[C@H]4O)[C@@H]2CC[C@]1(O[C@@H]1O[C@H](CO)[C@@H](O)[C@H](O[C@@H]2O[C@H](CO)[C@@H](O)[C@H](O)[C@H]2O)[C@H]1O[C@@H]1O[C@H](CO)[C@@H](O)[C@H](O)[C@H]1O)C3` [crystalline form α, rebaudioside D], in data set [3] (24 hours after the crystal was added to the saturated solution), the “persistence of the increase in amount dissolved” value is on record as “the increase continued”. The “amount of Reb. D dissolved after addition of the crystal to a saturated solution of commercially available Reb. D” value in data set [3] (crystal added 24 hours after saturation with stable form) is “further increased”. Besides, the “amount dissolved as compared with the control (Cont)” value in data set [2] is “increased”. Besides, in data set [4], the amount dissolved result is “tended to increase” and the “turbidity (NTU)” value is on record as “tended to be low”. For the same molecule, in data set [1], the moisture content was determined as 0.67 wt %.
